From patent publication US12084460B2, “Crystalline forms of a TLR7/TLR8 inhibitor” (NOVARTIS AG, priority 2018, dated 2024)
≈ marks a conversion by molar mass, not a printed value. Counter-ions that a name gives are not always drawn.

Assays:
Format in all cases: physicochemical
[1] = Solid state stability in bulk and with excipient mixtures; settings: bulk: 1 week 80° C., 50° C., 80° C.-75% RH, 50° C.-75% RH; excipient mixtures EM1, EM2, HGC, HMPC: 2 weeks 50° C. with or without 75% RH; HPLC and XRPD
Procedure: A stability and excipient compatibility study was performed on form A and form HA. Both forms were subject to various test conditions as described below: • Test conditions in bulk: 1 week in a tight container at 80° C., 50° C., 80° C.-75% RH or 50° C.-75% RH. • Test condition with excipient mixtures (EM) • a. 1% of form A or form HA in EM1 for 2 weeks at 50° C. • b. 1% of form A or form HA in EM2 for 2 weeks at 50° C. • c. 10% of form A or form HA in crushed hard gelatin capsule (HGC) for 2 weeks at 50° C. • d. 10% of form A or form HA in crushed Hydroxypropyl Methyl Cellulose (HMPC) for 2 weeks at 50° C. • e. 1% of form A or form HA in EM1 for 2 weeks at 50° C. and 75% RH • f. 1% of form A or form HA in EM2 for 2 weeks at 50° C. and 75% RH • g. 10% of form A or form HA in crushed HGC for 2 weeks at 50° C. and 75% RH • h. 10% of form A or form HA in crushed HMPC for 2 weeks at 50° C. and 75% RH • EM1: Excipient mixture 1: Lactose spray dried (53%), Microcrystalline Cellulose (MCC) PH102 (40%), Crospovidone XL (5%), Aerosil (0.5%), Magnesium stearate (1.5%) • EM2: Excipient mixture 2: Mannitol DC (68%), MCC PH102 (26%), Ac-Di-Sol (4%), Aerosil (0.5%), Magnesium stearate (1.5%)
The degradation products were analyzed by HPLC and the sample was analyzed by XPRD to detect any changes to the solid state.

[2] = Granulation simulation / dry grinding experiment; settings: for form change under dry grinding: XRPD and/or DSC
Procedure: Behavior under granulation simulation experiment: The physical stability of crystalline forms A and HA were also evaluated in granulation simulation experiments. In these experiments granulating solvent was added dropwise to the crystalline form A or HA until the solid is wetted sufficiently. The mixture was then vortexed between each addition at 25° C. Alternatively, dry grinding was carried out. The crystallinity of the material (post-grinding) was re-evaluated by XRPD and/or DSC.

[3] = Solubility
Procedure: Form A is highly soluble at pH values of 4.7 and below (solubility higher than 2 mg/mL), however, at higher pH levels, formation of less soluble form HA leads to lower solubility values.

[4] = Hygroscopicity / behaviour under humidity (DVS); settings: for behaviour at high humidity: above 70% RH
Text: Crystalline form A is an anhydrous form of (S)—N-(4-((5-(1,6-dimethyl-1H-pyrazolo[3,4-b]pyridin-4-yl)-3-methyl-4,5,6,7-tetrahydro-1H-pyrazolo[4,3-c]pyridin-1-yl)methyl)bicyclo[2.2.2]octan-1-yl)morpholine-3-carboxamide that is highly crystalline consisting of thin tabular particles.
Crystalline form HA is a hydrated form of (S)—N-(4-((5-(1,6-dimethyl-1H-pyrazolo[3,4-b]pyridin-4-yl)-3-methyl-4,5,6,7-tetrahydro-1H-pyrazolo[4,3-c]pyridin-1-yl)methyl)bicyclo[2.2.2]octan-1-yl)morpholine-3-carboxamide.

[5] = Stability under light exposure; settings: exposure to 1200 kLux at 25° C.
[6] = Competitive solvent equilibration of form A and form HA; settings: 1:1 mixture of form A and form HA suspended in solvents, 25-50° C., seven days, XRPD/DVS
Procedure: Competitive equilibrations were carried out to investigate the relative stability of form A and HA in a competitive solvent equilibration. A 1:1 mixture of form A and form HA was prepared and suspended in various solvents or mixture thereof at temperature between 25° C. and 50° C. for seven days. The resulting suspension was filtered and analyzed by XRPD/DVS.

[7] = Behavior under compression (physical stability); settings: 100 mg compressed 5 minutes at 10 tons
Procedure: Behavior under compression: The physical stability of each crystalline form (Form A or Form HA) was also evaluated.
100 mg of the crystalline form was compressed for 5 minutes at 10 tons with a hydraulic press (diameter of the tablets 8 mm). The sample was then characterized by XRPD to detect any change in the solid state.

[8] = Corrosivity assessment of salt form
Text: The criteria for selection are toxicological considerations, crystallinity, melting point, hygroscopicity, stability in bulk, compatibility with excipients, pH of aqueous solution, solubility in water and aqueous media, morphology, handling and polymorphic behavior.

Cc1cc(N2CCc3c(c(C)nn3CC34CCC(NC(=O)[C@@H]5COCCN5)(CC3)CC4)C2)c2cnn(C)c2n1 [Form A, (S)—N-(4-((5-(1,6-dimethyl-1H-pyrazolo[3,4-b]pyridin-4-yl)-3-methyl-4,5,6,7-tetrahydro-1H-pyrazolo[4,3-c]pyridin-1-yl)methyl)bicyclo[2.2.2]octan-1-yl)morpholine-3-carboxamide]
stability in bulk state and with excipients [1]: good stability | form change under dry grinding ([2]; listed as Modification A): stable | form change upon granulation ([2]; granulation with water): partially changed | solubility ([3]; pH 4.7, aqueous buffer, pH values of 4.7 and below): > 2000 µg/mL | behaviour at high humidity ([4]; listed as form A): transforms into the hydrate crystalline form HA | hygroscopicity ([4]; up to 70% RH): slightly hygroscopic | moisture uptake ([4]; up to 70% RH): 1.3% | physical and chemical stability under light exposure [5]: good physical and chemical stability | water activity (aw) at which form A transforms into form HA [6]: ~0.25 | change of crystalline form under compression (XRPD) [7]: No change of crystalline form

Cc1cc(N2CCc3c(c(C)nn3CC34CCC(NC(=O)[C@@H]5COCCN5)(CC3)CC4)C2)c2cnn(C)c2n1 [Form HA, (S)—N-(4-((5-(1,6-dimethyl-1H-pyrazolo[3,4-b]pyridin-4-yl)-3-methyl-4,5,6,7-tetrahydro-1H-pyrazolo[4,3-c]pyridin-1-yl)methyl)bicyclo[2.2.2]octan-1-yl)morpholine-3-carboxamide]
form change under dry grinding [2]: no form change | form change upon granulation ([2]; ethanol and water as granulation solvent, 25° C., XRPD): no form change | solubility ([3]; aqueous buffers in bio-relevant media, aqueous buffer): ~4 µg/mL (≈ 7.51 µM) | behaviour at low humidity ([4]; below 20% RH, rehydrates to form HA at 30% RH): dehydrates to a non-characterized anhydrate form | hygroscopicity ([4]; humidities above 30% RH): slightly hygroscopic

Cc1cc(N2CCc3c(c(C)nn3CC34CCC(NC(=O)[C@@H]5COCCN5)(CC3)CC4)C2)c2cnn(C)c2n1 [HCl salt, (S)—N-(4-((5-(1,6-dimethyl-1H-pyrazolo[3,4-b]pyridin-4-yl)-3-methyl-4,5,6,7-tetrahydro-1H-pyrazolo[4,3-c]pyridin-1-yl)methyl)bicyclo[2.2.2]octan-1-yl)morpholine-3-carboxamide]
corrosivity [8]: potential corrosivity | behaviour at high humidity [4]: deliquescent
